# In patent publication US12233161B1, “Lipids and lipid nanoparticle formulations” (LONGUIDE BIOPHARMA CORPORATION, priority 2024, dated 2025):
# Tests used:
# mice = experiment: In vivo delivery of FLuc-mRNA lipid nanoparticles in mice, in vivo imaging (IVIS); conditions: for IVIS: Fluc-mRNA
# Procedure, shortened: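 Mice (n=3) received about 75 μL FLuc-mRNA LNP per mouse intramuscularly (rectus femoris), intravenously (tail vein), intraperitoneally or subcutaneously (back). After injection, D-luciferin (200 μL, 15 mg/mL) was given i.p. 10-15 min before IVIS imaging.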
# [1] = Particle size and PDI of nucleic acid lipid nanoparticle preparations by dynamic light scattering; assay type: physicochemical
# Procedure, shortened: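 Nanoparticle suspension (about 0.04 mg/mL mRNA) diluted in ultrapure water, mixed by gentle pipetting; particle size measured by dynamic light scattering. Zeta potential measured on the recovered sample after further dilution in ultrapure water.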
# [2] = Potential characterization of nucleic acid lipid nanoparticle preparations; assay type: physicochemical
# Procedure: 20 μL of the nucleic acid lipid nanoparticle solution (containing about 0.04 mg/mL mRNA) was taken and added with 780 μL of ultrapure water, used a pipette tip to gently blow and mix, and the potential of the nanopreparation was detected by Malvern particle sizer (model ZEN3700).
# 27.5 μL nucleic acid lipid nanoparticle solution (containing about 0.04 mg/mL mRNA) was taken and added with 200 μL ultrapure water. A pipette tip was used to gently blow the sample and mix well. The particle size of the nanopreparation was detected by Malvern Dynamic Light Scattering Instrument (Malvern Instruments Ltd., ZEN3700, UK). After the detection, the sample was recovered to an EP tube, and 600 μL of ultrapure water was added, gently blown with a pipette tip, and the potential of the nanopreparation was measured by a Malvern particle size meter.
# [3] = IM, DMG-PEG2000:DSPC:Chol:compound 1.40:11.15:38.95:48.50, N/P 30
# [4] = DMG-PEG2000:DSPC:Chol:compound 1.40:11.15:38.95:48.50, N/P 30
# [5] = IV, body, DMG-PEG2000:DSPC:Chol:compound 1.00:10.00:33.00:56.00, N/P 42
# [6] = IV, body, DMG-PEG2000:DSPC:Chol:compound 1.40:11.15:38.95:48.50, N/P 30
# [7] = IV, liver, DMG-PEG2000:DSPC:Chol:compound 1.00:10.00:33.00:56.00, N/P 42
# [8] = IV, liver, DMG-PEG2000:DSPC:Chol:compound 1.40:11.15:38.95:48.50, N/P 30
# [9] = IV, lung, DMG-PEG2000:DSPC:Chol:compound 1.00:10.00:33.00:56.00, N/P 42
# [10] = IV, lung, DMG-PEG2000:DSPC:Chol:compound 1.40:11.15:38.95:48.50, N/P 30
# [11] = IV, spleen, DMG-PEG2000:DSPC:Chol:compound 1.00:10.00:33.00:56.00, N/P 42
# [12] = IV, spleen, DMG-PEG2000:DSPC:Chol:compound 1.40:11.15:38.95:48.50, N/P 30
# [13] = DMG-PEG2000:DSPC:Chol:compound 1.00:10.00:33.00:56.00, N/P 42
# [14] = DMG-PEG2000:DSPC:Chol:compound 1.40:11.15:38.95:48.50, N/P 20
# [15] = IM, DMG-PEG2000:DSPC:Chol:compound 1.40:11.15:38.95:48.50, N/P 40
# [16] = IV, body, DMG-PEG2000:DSPC:Chol:compound 1.40:11.15:38.95:48.50, N/P 40
# [17] = IV, liver, DMG-PEG2000:DSPC:Chol:compound 1.40:11.15:38.95:48.50, N/P 40
# [18] = IV, lung, DMG-PEG2000:DSPC:Chol:compound 1.40:11.15:38.95:48.50, N/P 40
# [19] = IV, spleen, DMG-PEG2000:DSPC:Chol:compound 1.40:11.15:38.95:48.50, N/P 40
# [20] = DMG-PEG2000:DSPC:Chol:compound 1.40:11.15:38.95:48.50, N/P 40
# [21] = IV, liver, DMG-PEG2000:DSPC:Chol:compound 1.00:10.00:33.00:56.00, N/P 35.5
# [22] = IV, lung, DMG-PEG2000:DSPC:Chol:compound 1.00:10.00:33.00:56.00, N/P 35.5
# [23] = IV, spleen, DMG-PEG2000:DSPC:Chol:compound 1.00:10.00:33.00:56.00, N/P 35.5
# [24] = DMG-PEG2000:DSPC:Chol:compound 1.00:10.00:33.00:56.00, N/P 35.5
"PDI [1, 4]","Particle size (nm) [1, 4] [nm]","Zeta potential (mV) [2, 4] [mV]",Compound,IVIS (mice; [3]),IVIS (mice; [6]),% of organ targeting (mice; [8]) [%],IVIS (mice; [8]),% of organ targeting (mice; [10]) [%],IVIS (mice; [10]),% of organ targeting (mice; [12]) [%],IVIS (mice; [12]),other results
0.17,89.51,15.97,CCCCCCCCCCCCNC(=O)C(O)CNCCN(C)CCN(CC(O)C(=O)NCCCCCCCCCCCC)CC(O)C(=O)NCCCCCCCCCCCC (stereo not drawn) [Compound L0290],3.06E+05,,,,,,,,"IVIS (mice; IV, organ not given, DMG-PEG2000:DSPC:Chol:compound 1.40:11.15:38.95:48.50, N/P 30): 1.18E+06"
0.17,259.67,15.07,CCCCCCC(CCCCCC)C(=O)OCCCCCCOC(=O)C(O)CN(C)CCN(C)CCN(C)CC(O)C(=O)OCCCCCCOC(=O)C(CCCCCC)CCCCCC (stereo not drawn) [Compound L0291],1.87E+07,1.83E+07,61.07,3.30E+06,3.97,2.14E+05,34.97,1.89E+06,"IVIS (mice; [5]): 2.60E+07; % of organ targeting (mice; [7]): 5.08%; IVIS (mice; [7]): 1.32E+06; % of organ targeting (mice; [9]): 5.76%; IVIS (mice; [9]): 1.50E+06; % of organ targeting (mice; [11]): 89.17%; IVIS (mice; [11]): 2.32E+07; PDI [1, 13]: 0.13; Particle size (nm) [1, 13]: 221.70 nm"
0.22,151.20,13.33,CCCCCCCCC(CCCCCC)C(=O)OCCCCCCOC(=O)C(O)CN(C)CCN(C)CCN(C)CC(O)C(=O)OCCCCCCOC(=O)C(CCCCCC)CCCCCCCC (stereo not drawn) [Compound L0292],1.05E+05,9.82E+06,25.18,3.22E+06,16.03,2.05E+06,58.80,7.53E+06,
0.13,129.13,9.23,CCCCCCC(CCCCCC)C(=O)OCCCCOC(=O)C(O)CN(CCCN(C)CCCN(CC(O)C(=O)OCCCCOC(=O)C(CCCCCC)CCCCCC)CC(O)C(=O)OCCCCOC(=O)C(CCCCCC)CCCCCC)CC(O)C(=O)OCCCCOC(=O)C(CCCCCC)CCCCCC (stereo not drawn) [Compound L0294],3.81E+07,3.72E+08,38.21,5.13E+07,7.55,1.01E+07,54.25,7.28E+07,
0.10,135.33,10.63,CCCCCCCCC(CCCCCC)C(=O)OCCCCCCOC(=O)C(O)CN(CCCN(C)CCCN(CC(O)C(=O)OCCCCCCOC(=O)C(CCCCCC)CCCCCCCC)CC(O)C(=O)OCCCCCCOC(=O)C(CCCCCC)CCCCCCCC)CC(O)C(=O)OCCCCCCOC(=O)C(CCCCCC)CCCCCCCC (stereo not drawn) [Compound L0295],5.87E+07,9.48E+07,33.17,2.38E+07,5.87,4.20E+06,60.96,4.37E+07,
,,,CCCCCCOC(C)OCCCCCCOC(=O)C(O)CN(C)CCN(C)CCN(C)CC(O)C(=O)OCCCCCCOC(C)OCCCCCC (stereo not drawn) [Compound L0300],,,,,,,,,"IVIS (mice; IM, DMG-PEG2000:DSPC:Chol:compound 1.40:11.15:38.95:48.50, N/P 20): 1.09E+06; IVIS (mice; IV, organ not given, DMG-PEG2000:DSPC:Chol:compound 1.40:11.15:38.95:48.50, N/P 20): 7.12E+05; PDI [1, 14]: 0.13; Particle size (nm) [1, 14]: 157.77 nm; Zeta potential (mV) [2, 14]: 5.14 mV"
,,,CCCCCCCCCCCCNC(=O)C(O)CN(CCCN(CCCN(CC(O)C(=O)NCCCCCCCCCCCC)CC(O)C(=O)NCCCCCCCCCCCC)CC(O)C[N+](C)(C)C)CC(O)C(=O)NCCCCCCCCCCCC (stereo not drawn) [Compound L0302],,,,,,,,,"IVIS (mice; [15]): 6.87E+05; IVIS (mice; [16]): 4.41E+06; % of organ targeting (mice; [17]): 1.31%; IVIS (mice; [17]): 2.05E+05; % of organ targeting (mice; [18]): 97.12%; IVIS (mice; [18]): 1.52E+07; % of organ targeting (mice; [19]): 1.57%; IVIS (mice; [19]): 2.47E+05; PDI [1, 20]: 0.21; Particle size (nm) [1, 20]: 132.07 nm; Zeta potential (mV) [2, 20]: 16.93 mV"
0.10,122.57,12.97,CCCCCCCCCCCCNCC(O)CN(CCCCCN(C)CCCCCN(CC(O)CNCCCCCCCCCCCC)CC(O)C(=O)NCCCCCCCCCCCC)CC(O)C(=O)NCCCCCCCCCCCC (stereo not drawn) [Compound L0303],9.76E+05,1.33E+08,2.25,7.60E+06,96.16,3.25E+08,1.59,5.38E+06,"IVIS (mice; [5]): 2.40E+08; % of organ targeting (mice; [7]): 0.64%; IVIS (mice; [7]): 2.70E+06; % of organ targeting (mice; [9]): 98.72%; IVIS (mice; [9]): 4.17E+08; % of organ targeting (mice; [11]): 0.64%; IVIS (mice; [11]): 2.70E+06; PDI [1, 13]: 0.09; Particle size (nm) [1, 13]: 132.10 nm"
,,,CCCCCCCCCCNC(=O)C(O)CN(CCCN(CCCN(CCO)CCO)CCCN(CC(O)C(=O)NCCCCCCCCCC)CC(O)C(=O)NCCCCCCCCCC)CC(O)C(=O)NCCCCCCCCCC (stereo not drawn) [Compound L0304],,,,,,,,,"IVIS (mice; [15]): 3.48E+05; IVIS (mice; IV, body, DMG-PEG2000:DSPC:Chol:compound 1.00:10.00:33.00:56.00, N/P 35.5): 9.15E+06; IVIS (mice; [16]): 1.29E+07; % of organ targeting (mice; [21]): 2.63%; IVIS (mice; [21]): 6.18E+05; % of organ targeting (mice; [17]): 2.30%; IVIS (mice; [17]): 7.31E+05; % of organ targeting (mice; [22]): 90.44%; IVIS (mice; [22]): 2.12E+07; % of organ targeting (mice; [18]): 90.53%; IVIS (mice; [18]): 2.87E+07; % of organ targeting (mice; [23]): 6.93%; IVIS (mice; [23]): 1.62E+06; % of organ targeting (mice; [19]): 7.17%; IVIS (mice; [19]): 2.27E+06; PDI [1, 24]: 0.15; Particle size (nm) [1, 24]: 121.27 nm; PDI [1, 20]: 0.14; Particle size (nm) [1, 20]: 101.73 nm; Zeta potential (mV) [2, 20]: 11.93 mV"
